Where a name gives a salt, the structure may show the parent alone. Read-outs that look alike come from different tables or passages of the source.

In data set [1] the target is SARS‐CoV‐2 PL^pro (Severe acute respiratory syndrome coronavirus 2, UniProt P0DTD1). Put plainly: biochemical. The data set is classed as biochemical.
In data set [2] the target is SARS‐CoV PL^pro (Severe acute respiratory syndrome coronavirus, UniProt P0C6X7). Put plainly: biochemical. The data set is classed as biochemical.
In data set [3] the test system is SARS‐CoV‐2. Put plainly: microbe, parasite or virus in culture. The data set is classed as cell-based.
Data set [4] in a line: in vitro. The note with it: African green monkey.
[5] abbreviates: read-out: Inhibition SARS‐CoV‐2 PL^pro, class (Table 1).
The mark [6] stands for this setting: read-out: Inhibition SARS‐CoV PL^pro, class (Table 1).
[7] abbreviates: read-out: Percentage inhibition SARS‐CoV‐2 PL^pro.
Where [8] appears, read: read-out: Inhibition SARS‐CoV PL^pro, class (Table 2).
Where [9] appears, read: read-out: Inhibition SARS‐CoV‐2 PL^pro, class (Table 2).
[10] abbreviates: read-out: Percentage inhibition SARS‐CoV PL^pro.

By melting point is commonly meant the temperature, or range, at which the solid turns liquid. Usually inhibition stands for the relative decrease from the control value, in per cent. `Cc1ccccc1NC(=O)C(C)c1cccc2ccccc12` (centres unmarked) [Compound 11 a, N ‐(2‐Methylphenyl)‐2‐naphth‐1‐ylpropanamide] had a melting point of 151 °C. Besides, in data set [1], the “Inhibition of SARS‐CoV‐2 PL^pro, in words” value was “not show inhibitory activity”. Besides, the inhibition at 100 µM in data set [1] (setting [5]) was < 50%. The inhibition at 100 µM in data set [2] (setting [6]) is < 50%.

One may read the IC50 as the concentration at which inhibition is half-maximal. For `C[C@@H](NC(=O)c1ccccc1)c1cccc2ccccc12` [Compound 2 c, N ‐[(1R)‐1‐Naphth‐1‐ylethyl]benzamide], the melting point stood at 195 °C. The inhibition at 100 µM in data set [1] (setting [7]) was determined as 60%. The IC50 in data set [2] is 62 ± 5 µM.

With `Cc1cc(NS(C)(=O)=O)ccc1C(=O)N[C@H](C)c1cccc2ccccc12` [Compound 2 s, 2‐Methyl‐4‐[(methylsulfonyl)amino]‐N‐[(1R)‐1‐naphth‐1‐ylethyl]benzamide], the IC50 in data set [1] is 10 ± 1 µM; in data set [2], 4.8 ± 0.3 µM.

Turning to `C[C@H](c1cccc2ccccc12)N1Cc2ccc([N+](=O)[O-])cc2C1` [Compound 14 f, 2‐[(1R)‐1‐Naphth‐1‐ylethyl]‐5‐nitro‐2,3‐dihydro‐1H‐isoindole], the “Inhibition of SARS‐CoV PL^pro, in words” value in data set [2] is reported as “Inactive”. In data set [2] (setting [8]), the inhibition at 100 µM was < 50%.

`Cc1ccccc1C(=O)NC(CO)c1cccc2ccccc12` (centres unmarked) [Compound 8, N ‐(2‐Hydroxy‐1‐naphth‐1‐ylethyl)‐2‐methylbenzamide]: in data set [2], the “Inhibition of SARS‐CoV PL^pro, in words” value is “inactivity”. For the same compound, the inhibition at 100 µM in data set [2] (setting [6]) was < 50%.

Compound `CC(C(=O)Nc1ccc(S(N)(=O)=O)cc1)c1cccc2ccccc12` (centres unmarked) [Compound 11 c, 2‐Naphth‐1‐yl‐N‐(4‐sulfamoylphenyl)propanamide] gave a melting point of 206 °C. For the same compound, the inhibition at 100 µM in data set [1] (setting [5]) is < 50%. Also, the inhibition at 100 µM in data set [2] (setting [6]) is < 50%.

`C[C@@H](c1cccc2ccccc12)N1Cc2ccccc2C1.Cl` [Compound 14 i, 2‐[(1S)‐1‐Naphth‐1‐ylethyl]‐2,3‐dihydro‐1H‐isoindol hydrochloride]: in data set [1], the “Inhibition of SARS‐CoV‐2 PL^pro, in words” value is on record as “not show inhibitory activity”. Besides, the inhibition at 100 µM in data set [1] (setting [9]) and in data set [2] (setting [8]) was < 50% throughout. The “Inhibition of SARS‐CoV PL^pro, in words” value in data set [2] is “abolished activity”.

For the compound `Cc1ccccc1C(=O)NC(C)c1ccccc1` (centres unmarked) [Compound 4 a, 2‐Methyl‐N‐(1‐phenyl)benzamide], the inhibition at 100 µM in data set [2] (setting [6]) was < 50%.

`C[C@@H](NC(=O)C(C)(C)C)c1cccc2ccccc12` [Compound 2 k] yielded a melting point of 131 °C. Besides, in data set [2], the “Inhibition of SARS‐CoV PL^pro, in words” value is “inactive”. Moreover, the inhibition at 100 µM in data set [2] (setting [6]) is < 50%.

Regarding `Cc1ccccc1C(=O)N[C@@H](C)c1cccc2ccccc12` [Compound 4 d, 2‐Methyl‐N‐[(1S)‐1‐naphth‐1‐ylethyl]benzamide], the “Inhibition of SARS‐CoV‐2 PL^pro, in words” value in data set [1] is listed as “not show inhibitory activity”. Further, the inhibition at 100 µM in data set [1] (setting [5]) and in data set [2] (setting [6]) was < 50% each time.

For the compound `Cc1ccccc1C(=O)N[C@H](C)c1cccc2ccccc12` [Compound 2 a, 2‐Methyl‐N‐[(1R)‐naphth‐1‐ylethyl]benzamide, reference compound], it took 6.9 ± 0.7 µM to reach half-maximal inhibition in data set [1] (IC50).

For the compound `Cc1cc(NC(=O)OC(C)(C)C)ccc1C(=O)N[C@H](C)c1cccc2ccccc12` [Compound 2 o, (R)‐tert‐Butyl(3‐Methyl‐4‐((1‐(naphth‐1‐yl)ethyl)carbamoyl)phenyl)carbamate], the midpoint of inhibition in data set [2], the IC50, lay at 1.6 ± 0.3 µM.

For the compound “2‐Methyl‐N‐(naphth‐1‐ylethyl]benzamide [Compound 4 b]”, the “Inhibition of SARS‐CoV PL^pro, in words” value in data set [2] is “inactive”. Further, the “Inhibition SARS‐CoV PL^pro, class (Table 1)” value in data set [2] (100 µM) was “n.a.^[b] (key: Compounds with inhibitory effect less than 50 % at 100 μM compared to DMSO were labelled as not active (n.a.))”.

As usually defined, the EC50 is the concentration that produces a half-maximal response. With `Cc1ccsc1C(=O)N[C@H](C)c1cccc2ccccc12` [Compound 2 n, 3‐Methyl‐N‐[(1R)‐1‐naphth‐1‐ylethyl]thiophene‐2‐carboxamide], the “SI (selectivity index)” value in data set [3] was >105. Besides, in data set [3] (Severe acute respiratory syndrome coronavirus 2, Vero C1008, 24 h, read-out: EC50 inhibition of SARS‐CoV‐2 replication), the EC50 worked out at 4.74 ± 1.35 µM. Moreover, the IC50 in data set [1] worked out at 42 ± 6 µM; in data set [2], 14 ± 1 µM. Moreover, the CC50 in data set [4] was > 500 µM.

`C[C@@H](NC(=O)Cc1ccccc1)c1cccc2ccccc12` [Compound 2 l, N ‐[(1R)‐1‐Naphth‐1‐ylethyl]‐2‐phenylacetamid] displayed a melting point of 130 °C. For the same compound, the inhibition at 100 µM in data set [2] (setting [10]) amounted to 57%.

Turning to `C[C@@H](NC(=O)c1ccccc1F)c1cccc2ccccc12` [Compound 2 f, 2‐Fluor‐N‐[(1R)‐1‐naphth‐1‐ylethyl]benzamide], the melting point is 135 °C. The inhibition at 100 µM in data set [1] (setting [7]) turned out to be 67%. In data set [2], this compound yielded an IC50 of 9 ± 1 µM.

With `COc1ccc2c(c1)CN([C@H](C)c1cccc3ccccc13)C2` [Compound 14 d, 5‐Methoxy‐2‐[(1R)‐1‐naphth‐1‐ylethyl]‐2,3‐dihydro‐1H‐isoindol], in data set [1] (setting [9]), the inhibition at 100 µM is < 50%. Half-maximal inhibition in data set [2] (IC50) was put at 14 ± 1 µM.

`C[C@@H](NC(=O)c1ccccc1C#N)c1cccc2ccccc12` [Compound 2 e, (R)‐2‐Cyano‐N‐(1‐(naphth‐1‐yl)ethyl)benzamide] registered a melting point of 181 °C. Further, in data set [1] (setting [5]), the inhibition at 100 µM was < 50%. Further, it took 18 ± 2 µM to reach half-maximal inhibition in data set [2] (IC50).

On to `CC(C(=O)Nc1ccccc1F)c1cccc2ccccc12` (centres unmarked) [Compound 11 b, N ‐(2‐Fluorphenyl)‐2‐naphth‐1‐ylpropanamide], for which the melting point was determined as 116 °C. Moreover, the inhibition at 100 µM in data set [1] (setting [5]) is < 50%. For the same compound, the inhibition at 100 µM in data set [2] (setting [6]) is < 50%.

The compound `C[C@@H](NC(=O)c1ccccc1Br)c1cccc2ccccc12` [Compound 2 g, 2‐Bromo‐N‐[(1R)‐1‐naphth‐1‐ylethyl]benzamide] came in with a melting point of 153 °C. In data set [1] (setting [7]), the inhibition at 100 µM is 73%. In data set [2], the midpoint of inhibition, the IC50, lay at 11 ± 2 µM.

Take `C[C@@H](NC(=O)c1ccccc1I)c1cccc2ccccc12` [Compound 2 h, 2‐Iodo‐N‐[(1R)‐1‐naphth‐1‐ylethyl]benzamide]: the melting point amounted to 161 °C. Moreover, the inhibition at 100 µM in data set [1] (setting [5]) was < 50%. In data set [2], half-maximal inhibition (IC50) required 25 ± 3 µM.

Regarding `CC(C(=O)NC1CCCCC1)c1cccc2ccccc12` (centres unmarked) [Compound 11 d, N ‐Cyclohexyl‐2‐naphth‐1‐ylpropanamide], the melting point amounted to 151 °C. Further, the inhibition at 100 µM in data set [1] (setting [5]) was < 50%. Further, the inhibition at 100 µM in data set [2] (setting [6]) is < 50%.

As for `C[C@H](c1cccc2ccccc12)N1Cc2cccc(N)c2C1` [Compound 14 j, 2‐[(1R)‐1‐Naphth‐1‐ylethyl]‐2,3‐dihydro‐1H‐isoindol‐4‐amine], in data set [1] (setting [9]), the inhibition at 100 µM was < 50%. The compound further gave an IC50 in data set [2] of 32 ± 2 µM.

Regarding `Cc1cccc2c1CN([C@H](C)c1cccc3ccccc13)C2.Cl` [Compound 14 a, 4‐Methyl‐2‐[(1R)‐1‐naphth‐1‐ylethyl]‐2,3‐dihydro‐1H‐isoindol hydrochloride], the melting point was 247 °C. Moreover, the inhibition at 100 µM in data set [1] (setting [9]) is < 50%. In addition, the inhibition at 10 µM in data set [2] (setting [10]) turned out to be 45%.

As for `C[C@H](c1cccc2ccccc12)N1Cc2cccc([N+](=O)[O-])c2C1` [Compound 14 e, 2‐[(1R)‐1‐Naphth‐1‐ylethyl]‐4‐nitro‐2,3‐dihydro‐1H‐isoindole], the “Inhibition of SARS‐CoV PL^pro, in words” value in data set [2] is on record as “Inactive”. Moreover, the inhibition at 10 µM in data set [2] (setting [10]) was < 50%.

In the case of `C[C@@H](NC(=O)C1CCCCC1)c1cccc2ccccc12` [Compound 2 j, N ‐[(1R)‐1‐Naphth‐1‐ylethyl]cyclohexanecarboxamide], the melting point was 170 °C. Besides, in data set [2], the “Inhibition of SARS‐CoV PL^pro, in words” value is “inactive”. The inhibition at 100 µM in data set [2] (setting [6]) was < 50%.

In turn, `C[C@@H](NC(=O)C(c1ccccc1)c1ccccc1)c1cccc2ccccc12` [Compound 2 m, (R)‐N‐(1‐(naphthalen‐1‐yl)ethyl)‐2,2‐diphenylacetamide] displayed a melting point of 152 °C. The “Inhibition of SARS‐CoV PL^pro, in words” value in data set [2] is “no inhibition”. The inhibition at 100 µM in data set [2] (setting [6]) was < 50%.

In turn, `Cc1ccc(NC(=O)OC(C)(C)C)cc1C(=O)N[C@H](C)c1cccc2ccccc12` [Compound 2 q, (R)‐tert‐Butyl (4‐Methyl‐3‐((1‐(naphth‐1‐yl)ethyl)carbamoyl)phenyl) carbamate] came in with an IC50 in data set [2] of 4.6 ± 0.4 µM.

As to `Cc1ccccc1CN[C@H](C)c1cccc2ccccc12` [Compound 17, (1R)‐N‐(2‐Methylbenzyl)‐1‐naphth‐1‐ylethylamine hydrochloride], the inhibition at 100 µM in data set [2] (setting [10]) was determined as 55%.

As to `Cc1ccccc1C(=O)NC(c1ccccc1)c1ccccc1` [Compound 4 c, N ‐(Diphenylmethyl)‐2‐methylbenzamide], in data set [2], the “Inhibition of SARS‐CoV PL^pro, in words” value was “inactive”. Besides, the inhibition at 100 µM in data set [2] (setting [6]) was < 50%.

`C[C@H](c1cccc2ccccc12)N1Cc2ccc(O)cc2C1` [Compound 14 l, 2‐[(1R)‐1‐Naphth‐1‐ylethyl]‐2,3‐dihydro‐1H‐isoindol‐5‐ol hydrochloride] yielded an IC50 in data set [2] of 4.5 ± 0.4 µM.

For the compound `c1ccc2c(c1)CN(Cc1cccc3ccccc13)C2` [Compound 14 c, 2‐(Naphth‐1‐ylmethyl)‐2,3‐dihydro‐1H‐isoindol hydrochloride], the inhibition at 100 µM in data set [2] (setting [8]) is < 50%.

Consider `C[C@@H](NC(=O)c1ccccc1C(F)(F)F)c1cccc2ccccc12` [Compound 2 d, N ‐[(1R)‐1‐Naphth‐1‐ylethyl]‐2‐(trifluormethyl)benzamide], for which the inhibition at 100 µM in data set [2] (setting [6]) was < 50%.

Turning to `Cc1ccc(N(C)C)cc1C(=O)N[C@H](C)c1cccc2ccccc12` [Compound 2 r, (R)‐5‐(Dimethylamino)‐2‐methyl‐N‐[1‐(naphth‐1‐yl)ethyl]benzamide], the IC50 in data set [1] came out at 10 ± 2 µM; in data set [2], 4 ± 0.2 µM.

In turn, `CNS(=O)(=O)c1ccc(C)c(C(=O)N[C@H](C)c2cccc3ccccc23)c1` [Compound 2 t, 2‐Methyl‐5‐(methylsulfamoyl)‐N‐[(1R)‐1‐naphth‐1‐ylethyl]benzamide] displayed a melting point of 184 °C. Further, in data set [1] (setting [7]), the inhibition at 100 µM amounted to 87%. The compound further showed an IC50 in data set [2] of 4 ± 0.3 µM.

(Values after article PMC7894572 (Chemmedchem, 2020).)
